Data: patent US20070212360A1, “Modulation of mitochondrial oxygen consumption for therapeutic purposes” (priority 2006, published 2007)

Columns and labels:
[1] = system: PDK1 in wildtype and HIF1α knockout mouse embryo fibroblasts (MEFs); test: Western blot of PDK1 in hypoxic MEFs; assay type: cell-based; details: 0.5% O2 24 h, 2 ng/ml
Procedure: FIG. 11. Inhibition of HIF1 increases oxygen consumption in vitro. (a) Western blot of wildtype and HIF1α knockout MEFs exposed normoxia (N) or hypoxia (H) (0.5% O2) for 24 hours in the presence or absence of 2 ng/ml echinomycin. (b) In vitro oxygen consumption of wildtype and HIF1α knockout MEFs (b) after exposure to 24 hours of normoxia or hypoxia (0.5% O2) in the presence or absence of 2 ng/ml echinomycin. Data are normalized to normoxic values. (*) indicate a significant difference relative to control (p<0.05).
Western blots. In brief, cells were harvested directly in RIPA buffer containing protease inhibitors, protein concentrations were quantified (Pierce), 25-50 μg of total protein was electrophoresed on a reducing Tris-Tricine gel, and electroblotted to PVDF membrane. Antibodies used were rabbit anti-PDK1 (Stressgen) (1:2000), murine anti-α tubulin (Research Diagnostics) (1:2000), and rabbit anti-Bnip3 and anti-Bnip3L as described previously by Papandreou et al. (2005) Cancer research 65, 3171-8. (1:500). Primary antibodies were detected with species-specific secondary antibodies labeled with Alkaline Phosphatase (Vector labs) (1:3000) and visualized with ECF (Amersham) on a Storm 860 phosphoimager (Molecular Devices).

RKO and RKOShHIF1α cells = test: In vitro oxygen consumption of RKO and RKOShHIF1α cells; assay type: cell-based, human; details: 0.5% O2 24 h
Procedure: FIG. 7. Inhibition of HIF1 and PDK1 increases oxygen consumption in vitro and in vivo. (a) Western blots of extracts from RKO and Su.86 cells exposed to normoxia (N) or hypoxia (H) (0.5% O2) for 24 h in the presence or absence of 2 ng/ml echinomycin probed for the indicated proteins. (b) Oxygen consumption rates of RKO and RKOShHIF1α cells (left) and Su.86 cells (right) after 24 h treatment with normoxia or hypoxia (0.5% O2) with or without 2 ng/ml echinomycin. Data are normalized to normoxic samples. (c) Relative oxygen consumption of RKO cells treated with hypoxia (0.5% O2) for 24 h in the presence of increasing concentrations of echinomycin. (d) Oxygen consumption rates of freshly explanted tumor tissue from RKO (n=16) and RKOShHIF1α (n=8) xenografts. (e) Oxygen consumption rates of RKO and RKOShHIF1 tumors from mice treated with 0.12 mg/kg echinomycin ip 24 h prior (n=8), or 50 mg/kg DCA ip 4 h prior (n=8). Data is normalized to PBS treated controls (n=8-16). (*) indicate a significant difference relative to control (p<0.05).
Oxygen consumption measurements. Cells were trypsinized and suspended at 3×10^6 to 6×10^6 cells per ml in normoxic DMEM+10% FBS. Oxygen consumption was measured in a 0.5 ml volume using an Oxytherm electrode unit (Hansatech, Norfolk, UK). […] Oxygen consumption was measured as above in a 1 ml volume and normalized to tissue weight.

[2] = system: RKO and RKOShHIF1α tumors; test: Tumor hypoxia by pimonidazole immunofluorescence; assay type: in vivo, mouse
Procedure: FIG. 9. Increasing oxygen consumption by inhibition of HIF increases tumor hypoxia. (a-d) Pimonidazole staining of tumor sections from RKO (a,b) and RKOShHIF1α (c,d) tumors 24 h after treatment with PBS (a,c) or echinomycin (b,d). The tumor section is outlined in white, pimonidazole staining is shown in green, and the necrotic areas and cutting artifacts are shown in gray. (e) The mean hypoxic fraction of RKO and RKOShHIF1α tumors 24 h after treatment with PBS or echinomycin (n=4-5 tumors per group). Error bars represent the standard error of the mean. (*) indicates a significant difference (p<0.05).
Detection of tumor hypoxia by pimonidazole immunofluorescence. Mice bearing 100-300 mm^3 subcutaneous RKO and RKOshHIF tumors on either flank were treated with 0.12 mg/kg echinomycin ip or saline control, and 24 h later they were injected with the hypoxia marker drug pimonidazole (60 mg/kg ip) (Millipore, Temecula, Calif.). Three hours after pimonidazole injection, tumors were excised, and frozen in Tissue-Tek O.C.T. compound. Frozen sections (10 μm thick) from the center regions of tumors were cut, air dried, and fixed for 15 min in acetone at 4 C. Slides were then air dried, rehydrated in PBS, and blocked for 30 min in 4% FBS, 5% non-fat milk, and 0.1% Triton X-100 in PBS. Slides were incubated for 1 hr at room temperature with a FITC-conjugated monoclonal antibody against pimonidazole (Millipore) diluted 1:20 in blocking solution. Slides were washed, counterstained with 50 nM propidium iodide (PI), and mounted under a coverslip in Vectashield medium (Vector Labs, Burlingame, Calif.).
FITC and Pi fluorescent signals for entire tumor sections (one section per tumor) were acquired using a 4× objective lens on a Nikon Eclipse E800 microscope equipped with a motorized scanning stage, a 12-bit QImaging camera (OImaging, Burnaby, Canada), and Bioquant imaging software (Bioquant, Nashville, Tenn.). Acquisition parameters were held constant for all samples. ImageJ software (NIH, Bethesda, Md.) was used to analyze the resulting tiled images. […]

[3] = 24 h after 0.12 mg/kg echinomycin ip vs vehicle

For `CS[C@H]1SC[C@H]2C(=O)N(C)[C@@H](C(C)C)C(=O)OC[C@@H](NC(=O)c3cnc4ccccc4n3)C(=O)N[C@@H](C)C(=O)N(C)[C@@H]1C(=O)N(C)[C@@H](C(C)C)C(=O)OC[C@@H](NC(=O)c1cnc3ccccc3n1)C(=O)N[C@@H](C)C(=O)N2C` [echinomycin], the “hypoxic expression of PDK1 in HIF1α deficient cells” value ([1]; HIF1α knockout MEFs) was “no effect”, the “hypoxic PDK1 induction in wildtype MEFs” value ([1]; wildtype MEFs) was “blocked PDK1 induction” and the “effect on HIF1-dependent reduction in oxygen consumption in parental cells” value (RKO and RKOShHIF1α cells; RKO parental cells, increasing concentrations) was “dose-dependent block”. For the same compound, the “effect on oxygen consumption in RKOShHIF1α cells” value (RKO and RKOShHIF1α cells; RKOShHIF1α cells, 2 ng/ml) was “no effect”, the “extent of hypoxia in RKOShHIF1α tumors (pimonidazole)” value [2, 3] was “no significant effect” and the “hypoxic fraction of RKO tumors (pimonidazole)” value [2, 3] was “increase in the hypoxic fraction”. The “extent of necrosis in tumor sections” value ([2]; four treatment groups (RKO, RKOShHIF1α; echinomycin or vehicle)) was “no difference”.
